# According to ChEMBL document CHEMBL2034905, “Synthesis of benzimidazolyl-1,3,4-oxadiazol-2ylthio-N-phenyl (benzothiazolyl) acetamides as antibacterial, antifungal and antituberculosis agents” (Eur J Med Chem, 2012):
# What was measured:
# [1] = system: Mycobacterium tuberculosis; assay: Antituberculosis activity against Mycobacterium tuberculosis H37Rv by BACTEC MGIT method; format: functional
# Klebsiella pneumoniae [2] = assay: Antibacterial activity against Klebsiella pneumoniae MTCC 109 at 100 ug/disc by paper disc diffusion technique; format: functional; conditions: read-out: IZ
# Shigella flexneri [3] = assay: Antibacterial activity against Shigella flexneri MTCC 1457 by agar streak dilution method; format: functional
# Aspergillus clavatus [4] = assay: Antifungal activity against Aspergillus clavatus MTCC 1323 at 100 ug/disc by paper disc diffusion technique; format: functional; conditions: read-out: IZ
# Pseudomonas aeruginosa [5] = assay: Antibacterial activity against Pseudomonas aeruginosa MTCC 741 by agar streak dilution method; format: functional
# Aspergillus fumigatus [6] = assay: Antifungal activity against Aspergillus fumigatus MTCC 343 by agar streak dilution method; format: functional
# Candida albicans [7] = assay: Antifungal activity against Candida albicans MTCC 183 by agar streak dilution method; format: functional
# Klebsiella pneumoniae [8] = assay: Antibacterial activity against Klebsiella pneumoniae MTCC 109 by agar streak dilution method; format: functional
# Proteus vulgaris [9] = assay: Antibacterial activity against Proteus vulgaris MTCC 1771 by agar streak dilution method; format: functional
# Staphylococcus aureus [10] = assay: Antibacterial activity against Staphylococcus aureus MTCC 96 by agar streak dilution method; format: functional
# Escherichia coli [11] = assay: Antibacterial activity against Escherichia coli MTCC 739 by agar streak dilution method; format: functional
# Staphylococcus aureus [12] = assay: Antibacterial activity against Staphylococcus aureus MTCC 96 at 100 ug/disc by paper disc diffusion technique; format: functional; conditions: read-out: IZ
# [13] = Lipophilicity, log P of the compound; format: physicochemical; conditions: octanol/water
# Aspergillus fumigatus [14] = assay: Antifungal activity against Aspergillus fumigatus MTCC 343 at 100 ug/disc by paper disc diffusion technique; format: functional; conditions: read-out: IZ
# [15] = system: Mycobacterium tuberculosis; assay: Antituberculosis activity against Mycobacterium tuberculosis H37Rv by Lowenstein-Jensen method; format: functional
# Escherichia coli [16] = assay: Antibacterial activity against Escherichia coli MTCC 739 at 100 ug/disc by paper disc diffusion technique; format: functional; conditions: read-out: IZ
# Aspergillus niger [17] = assay: Antifungal activity against Aspergillus niger MTCC 282 at 100 ug/disc by paper disc diffusion technique; format: functional; conditions: read-out: IZ
# Salmonella typhi [18] = assay: Antibacterial activity against Salmonella typhi MTCC 733 by agar streak dilution method; format: functional, Salmonella enterica subsp. enterica serovar Typhi; conditions: Salmonella enterica
# Aspergillus niger [19] = assay: Antifungal activity against Aspergillus niger MTCC 282 by agar streak dilution method; format: functional
# Pseudomonas aeruginosa [20] = assay: Antibacterial activity against Pseudomonas aeruginosa MTCC 741 at 100 ug/disc by paper disc diffusion technique; format: functional; conditions: read-out: IZ
# Bacillus cereus [21] = assay: Antibacterial activity against Bacillus cereus MTCC 430 at 100 ug/disc by paper disc diffusion technique; format: functional; conditions: read-out: IZ
# Aspergillus clavatus [22] = assay: Antifungal activity against Aspergillus clavatus MTCC 1323 by agar streak dilution method; format: functional
# Proteus vulgaris [23] = assay: Antibacterial activity against Proteus vulgaris MTCC 1771 at 100 ug/disc by paper disc diffusion technique; format: functional; conditions: read-out: IZ
# Salmonella typhi [24] = assay: Antibacterial activity against Salmonella typhi MTCC 733 at 100 ug/disc by paper disc diffusion technique; format: functional, Salmonella enterica subsp. enterica serovar Typhi; conditions: Salmonella enterica, read-out: IZ
# Bacillus cereus [25] = assay: Antibacterial activity against Bacillus cereus MTCC 430 by agar streak dilution method; format: functional
# Shigella flexneri [26] = assay: Antibacterial activity against Shigella flexneri MTCC 1457 at 100 ug/disc by paper disc diffusion technique; format: functional; conditions: read-out: IZ
# Candida albicans [27] = assay: Antifungal activity against Candida albicans MTCC 183 at 100 ug/disc by paper disc diffusion technique; format: functional; conditions: read-out: IZ
# [28] = system: Mycobacterium tuberculosis; assay: Antituberculosis activity against Mycobacterium tuberculosis H37Rv at 6.25 ug/ml by Lowenstein-Jensen method; format: functional
Structure (SMILES),MIC [1] [µg/mL],zone of inhibition at 100 µg/disc (Klebsiella pneumoniae [2]) [mm],MIC (Shigella flexneri [3]) [µg/mL],zone of inhibition at 100 µg/disc (Aspergillus clavatus [4]) [mm],MIC (Pseudomonas aeruginosa [5]) [µg/mL],MIC (Aspergillus fumigatus [6]) [µg/mL],MIC (Candida albicans [7]) [µg/mL],MIC (Klebsiella pneumoniae [8]) [µg/mL],MIC (Proteus vulgaris [9]) [µg/mL],MIC (Staphylococcus aureus [10]) [µg/mL],MIC (Escherichia coli [11]) [µg/mL],zone of inhibition at 100 µg/disc (Staphylococcus aureus [12]) [mm],zone of inhibition at 100 µg/disc (Aspergillus fumigatus [14]) [mm],MIC [15] [µg/mL],zone of inhibition at 100 µg/disc (Escherichia coli [16]) [mm],zone of inhibition at 100 µg/disc (Aspergillus niger [17]) [mm],MIC (Salmonella typhi [18]) [µg/mL],MIC (Aspergillus niger [19]) [µg/mL],zone of inhibition at 100 µg/disc (Pseudomonas aeruginosa [20]) [mm],zone of inhibition at 100 µg/disc (Bacillus cereus [21]) [mm],further results
O=C(CSc1nnc(Cn2cnc3ccccc32)o1)Nc1nc2ccc(I)cc2s1,> 6.25,14,25,14,100,100,100,100,12.5,12.5,50,22,< 10,200,15,14,100,100,14,23,logP [13]: 5.05; MIC (Aspergillus clavatus [22]): 100 µg/mL; zone of inhibition at 100 µg/disc (Proteus vulgaris [23]): 26 mm; zone of inhibition at 100 µg/disc (Salmonella typhi [24]): 16 mm; MIC (Bacillus cereus [25]): 25 µg/mL; zone of inhibition at 100 µg/disc (Shigella flexneri [26]): 22 mm; zone of inhibition at 100 µg/disc (Candida albicans [27]): 19 mm; inhibition at 6.25 µg/mL [28]: 96%
Cc1ccc2nc(NC(=O)CSc3nnc(Cn4cnc5ccccc54)o3)sc2c1,> 6.25,18,100,12,100,100,100,100,50,50,100,15,< 10,200,12,12,100,100,15,19,logP [13]: 4.18; MIC (Aspergillus clavatus [22]): 100 µg/mL; zone of inhibition at 100 µg/disc (Proteus vulgaris [23]): 20 mm; zone of inhibition at 100 µg/disc (Salmonella typhi [24]): 11 mm; MIC (Bacillus cereus [25]): 50 µg/mL; zone of inhibition at 100 µg/disc (Shigella flexneri [26]): 14 mm; zone of inhibition at 100 µg/disc (Candida albicans [27]): 15 mm; inhibition at 6.25 µg/mL [28]: 97%
CCOc1ccc2nc(NC(=O)CSc3nnc(Cn4cnc5ccccc54)o3)sc2c1,> 6.25,21,50,17,50,100,25,50,12.5,12.5,25,22,13,50,24,20,50,25,18,21,logP [13]: 3.9; MIC (Aspergillus clavatus [22]): 100 µg/mL; zone of inhibition at 100 µg/disc (Proteus vulgaris [23]): 26 mm; zone of inhibition at 100 µg/disc (Salmonella typhi [24]): 19 mm; MIC (Bacillus cereus [25]): 50 µg/mL; zone of inhibition at 100 µg/disc (Shigella flexneri [26]): 19 mm; zone of inhibition at 100 µg/disc (Candida albicans [27]): 26 mm; inhibition at 6.25 µg/mL [28]: 99%
N#Cc1ccc(NC(=O)CSc2nnc(Cn3cnc4ccccc43)o2)cc1,> 6.25,24,100,13,50,100,100,25,50,25,50,18,14,62.5,19,< 10,50,100,21,19,MIC (Aspergillus clavatus [22]): 100 µg/mL; zone of inhibition at 100 µg/disc (Proteus vulgaris [23]): 19 mm; zone of inhibition at 100 µg/disc (Salmonella typhi [24]): 20 mm; MIC (Bacillus cereus [25]): 50 µg/mL; zone of inhibition at 100 µg/disc (Shigella flexneri [26]): 17 mm; zone of inhibition at 100 µg/disc (Candida albicans [27]): 11 mm; inhibition at 6.25 µg/mL [28]: 96%
O=C(CSc1nnc(Cn2cnc3ccccc32)o1)Nc1nc2ccc([N+](=O)[O-])cc2s1,> 6.25,16,50,27,100,50,100,100,100,12.5,50,21,22,50,18,23,50,12.5,16,25,MIC (Aspergillus clavatus [22]): 25 µg/mL; zone of inhibition at 100 µg/disc (Proteus vulgaris [23]): 15 mm; zone of inhibition at 100 µg/disc (Salmonella typhi [24]): 19 mm; MIC (Bacillus cereus [25]): 12.5 µg/mL; zone of inhibition at 100 µg/disc (Shigella flexneri [26]): 20 mm; zone of inhibition at 100 µg/disc (Candida albicans [27]): 15 mm; inhibition at 6.25 µg/mL [28]: 98%
